Tests used:
[1] = tested on: Denken colony (susceptible strain) of German cockroach (Blattella germanica); experiment: Repellency test (treated vs non-treated shelter); type: in vivo; conditions: 0.3 μg/cm^2, after 7 days
Experimental: Sample: a compound represented by Formula (2), and etofenprox (control agent)
Test insect: Denken colony (susceptible strain) of German cockroach (Blattella germanica)
Test method: A test compound diluted with acetone was treated and dried on a glass disc having a diameter of 12 cm so as to be 0.3 μg/cm^2. A pet cup having 6 cm in inner diameter×0.5 cm in height was cut so as to have an entrance, and the pet cup was turned over and placed on the glass disc to make a shelter. A non-treated shelter and a drug-treated shelter were placed in the center of an acrylic box having 30 cm×15 cm, well water and rat feed were added as food, and 15 males and 15 females of German cockroach were released. After 7 days, the number of surviving insects, the number of dead insects, the number of agonizing insects, and the habitat were examined. Further, a KD (knockdown) rate and a repellency rate were calculated by the following equations. KD rate (%)=(the number of dead insects+the number of agonizing insects)/the number of released insects×100 Repellency rate (%)=(1−the number of cockroaches in treated area/(the number of cockroaches in treated area+the number of cockroaches in non-treated area)×100

[2] = tested on: bed bug (Cimex lectularius); experiment: Drug efficacy test, topical application (50% lethal dose); type: in vivo; conditions: for 50% lethal dose: female adult, topical application, mortality three days later
Description: (§1) Test drug: a compound represented by Formula (2)
(§2) Test insect: Watarida colony (susceptible strain) of German cockroach (Blattella germanica); Hamamatsu-cho colony (resistant strain) of German cockroach (Blattella germanica); Teikyo University colony (susceptible strain) of bed bug (Cimex lectularius); and Chiba colony (resistant strain) of bed bug (Cimex lectularius),
(§3) Insecticidal test: An acetone solution of a compound represented by Formula (2) was applied to the chest of a target insect female adult by using a topical application device. The mortality was examined six days later for the German cockroach and three days later for the bed bug, and each 50% lethal dose was determined. Further, the resistance ratio was calculated by the following equation. Resistance ratio=50% lethal dose of resistant strain/50% lethal dose of susceptible strain

Denken German cockroach = experiment: Forced contact with treated glass disc; type: in vivo, Blattella germanica; conditions: forcibly brought into contact with glass disc treated at 0.3 μg/cm^2, within 48 hours
Experimental: The Denken German cockroach had 100% knockdown within 48 hours when forcibly brought into contact with a glass disc that had been treated with the compound of Formula (2) and etofenprox so as to have a concentration of 0.3 μg/cm^2.

[3] = tested on: German cockroach (Blattella germanica); experiment: Drug efficacy test, topical application (50% lethal dose); type: in vivo; conditions: for 50% lethal dose: female adult, topical application, mortality six days later
Description: as §1, §2, §3

[4] = tested on: Watarida colony (susceptible strain) of German cockroach (Blattella germanica); experiment: Heat volatilization test; type: in vivo; conditions: 1 g of sample heated at 300° C., after 15 hours
Experimental: Sample: a compound represented by Formula (2)
Test insect: Watarida colony (susceptible strain) of German cockroach (Blattella germanica)
After 15 hours, examination of life or death was performed on the tested cockroaches, and the fatality rate was calculated.

SMILES	repellent effect (conclusion in words) [1]	Non-treated shelter Number of agonizing insects ([1]; Total (30 released))	Non-treated shelter Number of dead insects ([1]; Total (30 released))	Non-treated shelter Number of surviving insects ([1]; Total (30 released))	Outside the area Number of agonizing insects ([1]; Total (30 released))	Outside the area Number of dead insects ([1]; Total (30 released))	Outside the area Number of surviving insects ([1]; Total (30 released))	Treated shelter Number of agonizing insects ([1]; Total (30 released))	Treated shelter Number of dead insects ([1]; Total (30 released))	Treated shelter Number of surviving insects ([1]; Total (30 released))	KD rate ([1]; Total) [%]	Non-treated shelter Number of agonizing insects ([1]; female (15 released))	Non-treated shelter Number of dead insects ([1]; female (15 released))	Non-treated shelter Number of surviving insects ([1]; female (15 released))	Outside the area Number of agonizing insects ([1]; female (15 released))	Outside the area Number of dead insects ([1]; female (15 released))	Outside the area Number of surviving insects ([1]; female (15 released))	Treated shelter Number of agonizing insects ([1]; female (15 released))	Treated shelter Number of dead insects ([1]; female (15 released))	Treated shelter Number of surviving insects ([1]; female (15 released))	other results
CCOc1ccc(C(C)(C)COCc2cccc(Oc3ccccc3)c2)cc1 [Etofenprox, etofenprox]	has a repellent effect	0	0	29	0	1	0	0	0	0	3	0	0	15	0	0	0	0	0	0	Repellency rate ([1]; Total): 100%; KD rate ([1]; female): 0%; Repellency rate ([1]; female): 100%; Non-treated shelter Number of agonizing insects ([1]; male (15 released)): 0; Non-treated shelter Number of dead insects ([1]; male (15 released)): 0; Non-treated shelter Number of surviving insects ([1]; male (15 released)): 14; Outside the area Number of agonizing insects ([1]; male (15 released)): 0; Outside the area Number of dead insects ([1]; male (15 released)): 1; Outside the area Number of surviving insects ([1]; male (15 released)): 0; Treated shelter Number of agonizing insects ([1]; male (15 released)): 0; Treated shelter Number of dead insects ([1]; male (15 released)): 0; Treated shelter Number of surviving insects ([1]; male (15 released)): 0; KD rate ([1]; male): 7%; Repellency rate ([1]; male): 100%; Resistance ratio ([2]; etofenprox to bed bugs, strains not stated): ≥ 10000; knockdown (Denken German cockroach): 100%
CN(C(=O)c1ccccc1)c1cccc(C(=O)Nc2c(Br)cc(C(F)(C(F)(F)F)C(F)(F)F)cc2C(F)(F)F)c1F [Compound represented by Formula (2), 2-fluoro-3-(N-methylbenzamide)-N-(2-bromo-6-trifluoromethyl-4-(heptafluoropropane-2-yl)phenyl)benzamide]	has no repellent effect	0	0	0	3	27	0	0	0	0	100	0	0	0	2	13	0	0	0	0	KD rate ([1]; female): 100%; Non-treated shelter Number of agonizing insects ([1]; male (15 released)): 0; Non-treated shelter Number of dead insects ([1]; male (15 released)): 0; Non-treated shelter Number of surviving insects ([1]; male (15 released)): 0; Outside the area Number of agonizing insects ([1]; male (15 released)): 1; Outside the area Number of dead insects ([1]; male (15 released)): 14; Outside the area Number of surviving insects ([1]; male (15 released)): 0; Treated shelter Number of agonizing insects ([1]; male (15 released)): 0; Treated shelter Number of dead insects ([1]; male (15 released)): 0; Treated shelter Number of surviving insects ([1]; male (15 released)): 0; KD rate ([1]; male): 100%; Resistance ratio ([3]; 50% lethal dose of resistant strain (Hamamatsu-cho)/susceptible strain (Watarida)): 1.9; 50% lethal dose ([3]; Hamamatsu-cho colony (resistant strain)): 21.5 ng/insect; 50% lethal dose ([3]; Watarida colony (susceptible strain)): 11.2 ng/insect; Resistance ratio ([2]; 50% lethal dose of resistant strain (Chiba)/susceptible strain (Teikyo University)): 11.4; 50% lethal dose ([2]; Chiba colony (resistant strain)): 14.8 ng/insect; 50% lethal dose ([2]; Teikyo University colony (susceptible strain)): 1.3 ng/insect; fatality rate ([4]; inside the slit box): 100%; fatality rate ([4]; outside the slit box): 100%; knockdown (Denken German cockroach): 100%

From patent US11484029B2, “Method for controlling building-inhabiting pest and composition for controlling building-inhabiting pest” (priority 2017, dated 2022)
